Where two headings read alike, the source gives them in different places. One block for each compound: values may come before it.
Experiments:
[1] = type: physicochemical; settings: for dissolution upon visual inspection: 2 g in 75 ml distilled water, stirred mechanically ~5 min
[2] = pH measurement of 2 g of substance in 75 ml H2O
[3] = tested on: age-associated memory impairment; settings: humans; cited from earlier work
cognitive function = settings: cited from earlier work
cerebral ischemia = settings: oral administration to experimental animals; cited from earlier work

Compound: (2-(1-methylguanidino)acetyl)oxonium (S)-5-oxopyrrolidine-2-carboxylate [creatine pyroglutamate]
dissolution upon visual inspection ([1]; Experiment 1): dissolved completely
time to complete dissolution of crystals ([1]; Experiment 2, 2 g in 75 ml distilled H2O, stirred): ≤ 5 min
pH of 2 g in 75 ml H2O ([2]; listed as product obtained in Experiment 2): 3.09
pH of 2 g in 75 ml H2O ([2]; listed as unwashed product): ~3.00

Compound: CN(CC(=O)O)C(=N)N.O [creatine monohydrate]
dissolution upon visual inspection ([1]; Experiment 1): did not dissolve very well
dissolution after lowering pH by adding pyroglutamic acid ([1]; Experiment 1, creatine monohydrate 2 g in 75 ml water, some pyroglutamic acid added): dissolved
dissolution after 30 min of stirring ([1]; Experiment 2, 2 g in 75 ml distilled H2O, 30 min stirring): still a considerable amount of solids that did not dissolve
pH of 2 g in 75 ml H2O [2]: ~7.00

pH of 2 g in 75 ml H2O [2]: ~2.00
Compound: O=C1CC[C@@H](C(=O)O)N1 [pyroglutamic acid, L-pyroglutamic acid]
age-associated memory impairment [3]: improves
cognitive function in rats (cognitive function): improve

Compound: CN(CC(=O)O)C(=N)N [Creatine, N-methyl-N-guanyl Glycine]
ischemic brain infarction (cerebral ischemia): remarkable reduction
